Data on 24 compounds can be found in ChEMBL document CHEMBL1122716, “cis-1,3,4,6,7,11b-Hexahydro-2-methyl-7-phenyl-2H-pyrazino[2,1-a] isoquinoline: a new atypical antidepressant” (J Med Chem, 1984).

This test can be described thus: Binding affinity towards histamine receptor by inhibiting specific binding of [3H]-mepyramine (3 nM) in vitro to membranes of rat brain without cerebellum. The test is classed as cell membranes.

By IC50 is commonly meant the concentration that inhibits the measured activity by half. A low value points to greater potency.

The structures appear in SMILES notation. A value given as a limit tells only on which side of the number the result lay.

In turn, `CCCN1CCN2CC(c3ccccc3)c3ccccc3C2C1` (cis isomer) yielded an IC50 of over 10000 nM. The same measure for `c1ccc(C2CN3CCNCC3c3ccccc32)cc1` (centres undefined): over 10000 nM.

The compound `CN1CCN2c3ccccc3Cc3ccccc3C2C1` (centres undefined) [MIANSERIN] gave an IC50 of 14 nM. The same measure for `CCCCCCN1CCN2CC(c3ccccc3)c3ccccc3C2C1` (centres undefined): over 10000 nM; for `CN1CCN2CC(c3ccccc3)c3ccccc3C2C1` (single isomer, unassigned; (-)): 40 nM; for `c1ccc(CCN2CCN3CC(c4ccccc4)c4ccccc4C3C2)cc1` (centres undefined): over 10000 nM. The same measure for `CN(C)CC1c2ccccc2C(c2ccccc2)CN1C` (cis isomer): over 10000 nM; for `CN(C)CCCN1c2ccccc2CCc2ccccc21` [IMIPRAMINE]: 30 nM. The same measure for `CN(C)CC1NCC(c2ccccc2)c2ccccc21` (centres undefined): 2000 nM; for `CN1CCN2CC(c3ccc(O)cc3)c3ccccc3C2C1` (centres undefined): 190 nM; for `COc1ccc(C2CN3CCN(C)CC3c3ccccc32)cc1` (centres undefined): 680 nM. `CN1CCN2CC(c3ccccc3)c3ccccc3C2C1` (trans isomer) had an IC50 of over 10000 nM. `CN1CCN2CC(c3ccc(N)cc3)c3ccccc3C2C1` (cis isomer): the IC50 was 860 nM.

`CCN1CCN2CC(c3ccccc3)c3ccccc3C2C1` (centres undefined) registered an IC50 of 280 nM. Compound `CN1CCN2CC(c3ccc([N+](=O)[O-])cc3)c3ccc([N+](=O)[O-])cc3C2C1` (cis isomer) returned an IC50 of over 10000 nM. `CN1CCN2CC(c3ccc([N+](=O)[O-])cc3)c3ccccc3C2C1` (cis isomer): the IC50 amounted to 520 nM. On to `CN1CCN2CC(c3ccc(Cl)cc3)c3ccccc3C2C1` (centres undefined), for which the IC50 is 380 nM. The same measure for `c1ccc(CN2CCN3CC(c4ccccc4)c4ccccc4C3C2)cc1` (centres undefined): over 10000 nM; for `CNCC1NCC(c2ccccc2)c2ccccc21` (stereo in doubt; 5): 170 nM. As for `CCCCN1CCN2CC(c3ccccc3)c3ccccc3C2C1` (cis isomer), the IC50 was over 10000 nM. `CN1CCN2CC(c3ccccc3)c3ccccc3C2C1` (stereo in doubt; 7a) yielded an IC50 of 60 nM. The same measure for `CN1CCN2CC(c3ccccc3)c3ccccc3C2C1` (stereo in doubt; 10): 2800 nM.

Turning to `CNCC1NCC(c2ccccc2)c2ccccc21` (stereo in doubt; 4a), the IC50 worked out at 3500 nM. `CCNCC1NCC(c2ccccc2)c2ccccc21` (cis isomer) showed an IC50 of 5000 nM.
